{
  "source": "patent US12502395B2",
  "about": "“Progestin/testosterone transdermal gel” (The Population Council, Inc., priority 2022, dated 2025)",
  "origin": "cited, not measured here",
  "key": {"[1]": {"system": "androgenic, estrogenic, or glucocorticoid actions", "conditions": "at up to x2000 the therapeutic levels"}, "[2]": {"conditions": "most common adverse event; 100 mg/day of T"}, "pregnancy": {"system": "pregnancy", "conditions": "weekly intramuscular injection of 200 mg/week for 12 months"}},
  "data": [
    {"smiles": "C=C1C[C@H]2[C@@H]3CCC4=CC(=O)CC[C@@H]4[C@H]3CC[C@]2(C)[C@@]1(OC(C)=O)C(C)=O", "note": "[NES, 16-methylene-17α-acetoxy-19-norpregn-4-ene-3,20-dione]", "values": [
      {"measurement": "Androgenic, estrogenic, or glucocorticoid actions", "setting": "[1]", "value": "does not carry androgenic, estrogenic, or glucocorticoid actions"}
    ]},
    {"smiles": "C[C@]12CC[C@H]3[C@@H](CCC4=CC(=O)CC[C@@]43C)[C@@H]1CC[C@@H]2O", "note": "[T, Testosterone]", "values": [
      {"measurement": "Acne, % of subjects", "setting": "[2]", "value": 21, "unit": "%"}
    ]},
    {"smiles": "CCCCCCC(=O)O[C@H]1CC[C@H]2[C@@H]3CCC4=CC(=O)CC[C@]4(C)[C@H]3CC[C@]12C", "note": "[testosterone enanthate]", "values": [
      {"measurement": "Pregnancy rate", "setting": "pregnancy", "value": "0.8 pregnancy per 100 person-years of exposure"}
    ]}
  ]
}
